From the NIST ThermoML archive (doi:10.1021/je700499d)

Experiments:
[1] = 101 kPa, Liquid
[2] = xn = mol fraction of the nth substance listed; settings: 101 kPa, Liquid

OCCO [1,2-ethanediol]
[1]
Settings | mass density [kg/m3]
293.15 K | 1113.55
303.15 K | 1106.82
313.15 K | 1099.8
323.15 K | 1092.59

OCCO [1,2-ethanediol] + OCCCCO
[2], x2 = 0
Settings | mass density [kg/m3]
293.15 K | 1113.55
303.15 K | 1106.82
313.15 K | 1099.8
323.15 K | 1092.59

CC(O)CO (stereo not drawn) [1,2-propanediol]
[1]
Settings | mass density [kg/m3]
293.15 K | 1036.57
298.15 K | 1032.86
303.15 K | 1029.15
308.15 K | 1025.57
313.15 K | 1021.44
318.15 K | 1017.59
323.15 K | 1013.74
328.15 K | 1009.71

CC(O)CO (stereo not drawn) [1,2-propanediol] + OCCCCO
[2], x2 = 0
Settings | mass density [kg/m3]
293.15 K | 1036.57
298.15 K | 1032.86
303.15 K | 1029.15
308.15 K | 1025.57
313.15 K | 1021.44
318.15 K | 1017.59
323.15 K | 1013.74
328.15 K | 1009.71

OCCCCO [1,4-butanediol]
[1]
Settings | mass density [kg/m3]
293.15 K | 1016.37
298.15 K | 1013.04
303.15 K | 1009.96
308.15 K | 1006.75
313.15 K | 1003.55
318.15 K | 1000.72
323.15 K | 997.8
328.15 K | 994.41

OCCCCO [1,4-butanediol] + CC(O)CO
mass density [kg/m3], [2]
Settings | x1 = 0.0858 | x1 = 0.1743 | x1 = 0.2657 | x1 = 0.3602 | x1 = 0.4578 | x1 = 0.5588 | x1 = 0.6633 | x1 = 0.7716 | x1 = 0.8837 | x1 = 1
293.15 K | 1034.9 | 1033.19 | 1031.46 | 1029.77 | 1027.85 | 1025.52 | 1023.19 | 1020.85 | 1018.55 | 1016.37
298.15 K | 1031.31 | 1029.67 | 1028 | 1026.34 | 1024.48 | 1022.17 | 1019.88 | 1017.57 | 1015.25 | 1013.04
303.15 K | 1027.73 | 1026.21 | 1024.62 | 1023.01 | 1021.19 | 1018.94 | 1016.79 | 1014.47 | 1012.17 | 1009.96
308.15 K | 1024.25 | 1022.83 | 1021.31 | 1019.74 | 1018 | 1015.76 | 1013.64 | 1011.33 | 1009.03 | 1006.75
313.15 K | 1020.28 | 1019 | 1017.64 | 1016.12 | 1014.43 | 1012.35 | 1010.33 | 1008.06 | 1005.78 | 1003.55
318.15 K | 1016.58 | 1015.49 | 1014.21 | 1012.83 | 1011.22 | 1009.28 | 1007.33 | 1005.16 | 1002.94 | 1000.72
323.15 K | 1012.91 | 1011.97 | 1010.78 | 1009.47 | 1007.97 | 1006.13 | 1004.3 | 1002.18 | 1000.03 | 997.8
328.15 K | 1009 | 1008.2 | 1007.11 | 1005.84 | 1004.39 | 1002.63 | 1000.83 | 998.81 | 996.69 | 994.41

OCCCCO [1,4-butanediol] + OCCCO
[2], x1 = 1
Settings | mass density [kg/m3]
293.15 K | 1016.37
298.15 K | 1013.04
303.15 K | 1009.96
308.15 K | 1006.75
313.15 K | 1003.55
318.15 K | 1000.72
323.15 K | 997.8
328.15 K | 994.41

OCCCCO [1,4-butanediol] + OCCO
mass density [kg/m3], [2]
Settings | x1 = 0.0711 | x1 = 0.1469 | x1 = 0.2279 | x1 = 0.3147 | x1 = 0.4078 | x1 = 0.5081 | x1 = 0.6164 | x1 = 0.7337 | x1 = 0.8611 | x1 = 1
293.15 K | 1102.71 | 1092.13 | 1081.71 | 1071.48 | 1061.52 | 1051.91 | 1042.67 | 1033.74 | 1024.96 | 1016.37
298.15 K | 1099.09 | 1088.58 | 1078.21 | 1068.02 | 1058.12 | 1048.56 | 1039.34 | 1030.4 | 1021.64 | 1013.04
303.15 K | 1096.06 | 1085.57 | 1075.22 | 1065.04 | 1055.16 | 1045.58 | 1036.35 | 1027.39 | 1018.61 | 1009.96
308.15 K | 1092.51 | 1082.1 | 1071.84 | 1061.7 | 1051.85 | 1042.33 | 1033.12 | 1024.17 | 1015.41 | 1006.75
313.15 K | 1089.15 | 1078.8 | 1068.56 | 1058.5 | 1048.65 | 1039.15 | 1029.95 | 1020.99 | 1012.22 | 1003.55
318.15 K | 1085.69 | 1075.44 | 1065.32 | 1055.33 | 1045.62 | 1036.15 | 1027.01 | 1018.1 | 1009.36 | 1000.72
323.15 K | 1082.18 | 1072.03 | 1061.97 | 1052.09 | 1042.43 | 1033.05 | 1023.96 | 1015.11 | 1006.4 | 997.8
328.15 K | 1078.33 | 1068.25 | 1058.28 | 1048.46 | 1038.86 | 1029.53 | 1020.51 | 1011.66 | 1002.99 | 994.41

OCCCO [propan-1,3-diol]
[1]
Settings | mass density [kg/m3]
293.15 K | 1053.66
298.15 K | 1050.29
303.15 K | 1047.09
308.15 K | 1043.92
313.15 K | 1040.61
318.15 K | 1037.6
323.15 K | 1034.51
328.15 K | 1031

OCCCO [propan-1,3-diol] + OCCCCO
mass density [kg/m3], [2]
Settings | 293.15 K | 298.15 K | 303.15 K | 308.15 K | 313.15 K | 318.15 K | 323.15 K | 328.15 K
x2 = 0 | 1053.66 | 1050.29 | 1047.09 | 1043.92 | 1040.61 | 1037.6 | 1034.51 | 1031
x2 = 0.0858 | 1049.89 | 1046.56 | 1043.39 | 1040.26 | 1036.99 | 1034.04 | 1030.99 | 1027.53
x2 = 0.1743 | 1046.21 | 1042.87 | 1039.74 | 1036.61 | 1033.39 | 1030.48 | 1027.5 | 1024.08
x2 = 0.2657 | 1042.49 | 1039.2 | 1036.07 | 1032.95 | 1029.75 | 1026.88 | 1023.9 | 1020.5
x2 = 0.3602 | 1038.78 | 1035.48 | 1032.39 | 1029.26 | 1026.07 | 1023.21 | 1020.26 | 1016.86
x2 = 0.4578 | 1035.05 | 1031.77 | 1028.69 | 1025.57 | 1022.39 | 1019.53 | 1016.6 | 1013.22
x2 = 0.5523 | – | – | 1024.89 | – | – | – | – | –
x2 = 0.5588 | 1031.27 | 1027.98 | – | 1021.77 | 1018.61 | 1015.78 | 1012.86 | 1009.51
x2 = 0.6574 | – | – | 1021.16 | – | – | – | – | –
x2 = 0.6633 | 1027.52 | 1024.23 | – | 1018.03 | 1014.87 | 1012.06 | 1009.17 | 1005.8
x2 = 0.7669 | – | – | 1017.41 | – | – | – | – | –
x2 = 0.7716 | 1023.77 | 1020.48 | – | 1014.27 | 1011.08 | 1008.27 | 1005.36 | 1001.99
x2 = 0.881 | – | – | 1013.68 | – | – | – | – | –
x2 = 0.8837 | 1020.05 | 1016.74 | – | 1010.51 | 1007.33 | 1004.52 | 1001.61 | 998.24
